Source: ChEMBL document CHEMBL5649169 (ChemMedChem, 2018)

Assays:
[1] = target: Phosphatidate cytidylyltransferase 2 (Homo sapiens) (UniProt O95674)
[2] = target: Eukaryotic translation initiation factor 2-alpha kinase 1 (Homo sapiens) (UniProt Q9BQI3)
[3] = target: H/ACA ribonucleoprotein complex subunit 1 (Homo sapiens) (UniProt Q9NY12)
[4] = target: Transmembrane protein 94 (Homo sapiens) (UniProt Q12767)
[5] = target: NUAK family SNF1-like kinase 2 (Homo sapiens) (UniProt Q9H093)
Radixin (Homo sapiens) = Radixin (Homo sapiens) (UniProt P35241)
[6] = target: Large ribosomal subunit protein eL19 (Homo sapiens) (UniProt P84098)
[7] = target: Small ribosomal subunit protein eS1 (Homo sapiens) (UniProt P61247)
[8] = target: Secretory carrier-associated membrane protein 2 (Homo sapiens) (UniProt O15127)
[9] = target: Solute carrier family 2, facilitated glucose transporter member 1 (Homo sapiens) (UniProt P11166)
Chain of Solute carrier family 2, facilitated glucose transporter member 1 (Homo sapiens) (P11166 whole entry): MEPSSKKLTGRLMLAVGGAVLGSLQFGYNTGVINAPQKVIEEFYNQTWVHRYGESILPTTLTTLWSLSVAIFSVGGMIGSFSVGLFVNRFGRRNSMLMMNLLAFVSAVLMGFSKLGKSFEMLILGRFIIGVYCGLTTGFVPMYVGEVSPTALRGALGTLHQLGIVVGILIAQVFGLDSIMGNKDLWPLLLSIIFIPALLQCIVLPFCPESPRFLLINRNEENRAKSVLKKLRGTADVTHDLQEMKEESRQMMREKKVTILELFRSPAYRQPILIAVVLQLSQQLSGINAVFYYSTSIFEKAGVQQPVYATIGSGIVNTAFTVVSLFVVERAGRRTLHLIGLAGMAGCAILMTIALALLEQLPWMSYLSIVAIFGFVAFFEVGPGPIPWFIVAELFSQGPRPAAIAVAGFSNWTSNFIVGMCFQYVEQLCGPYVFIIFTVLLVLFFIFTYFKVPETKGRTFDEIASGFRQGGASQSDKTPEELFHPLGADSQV

[10] = target: Activated RNA polymerase II transcriptional coactivator p15 (Homo sapiens) (UniProt P53999)
[11] = target: Non-selective voltage-gated ion channel VDAC2 (Homo sapiens) (UniProt P45880)
[12] = target: 14-3-3 protein zeta/delta (Homo sapiens) (UniProt P63104)
[13] = target: Uncharacterized aarF domain-containing protein kinase 5 (Homo sapiens) (UniProt Q3MIX3)
Chain of Uncharacterized aarF domain-containing protein kinase 5 (Homo sapiens) (Q3MIX3 whole entry, the tested form may be a part): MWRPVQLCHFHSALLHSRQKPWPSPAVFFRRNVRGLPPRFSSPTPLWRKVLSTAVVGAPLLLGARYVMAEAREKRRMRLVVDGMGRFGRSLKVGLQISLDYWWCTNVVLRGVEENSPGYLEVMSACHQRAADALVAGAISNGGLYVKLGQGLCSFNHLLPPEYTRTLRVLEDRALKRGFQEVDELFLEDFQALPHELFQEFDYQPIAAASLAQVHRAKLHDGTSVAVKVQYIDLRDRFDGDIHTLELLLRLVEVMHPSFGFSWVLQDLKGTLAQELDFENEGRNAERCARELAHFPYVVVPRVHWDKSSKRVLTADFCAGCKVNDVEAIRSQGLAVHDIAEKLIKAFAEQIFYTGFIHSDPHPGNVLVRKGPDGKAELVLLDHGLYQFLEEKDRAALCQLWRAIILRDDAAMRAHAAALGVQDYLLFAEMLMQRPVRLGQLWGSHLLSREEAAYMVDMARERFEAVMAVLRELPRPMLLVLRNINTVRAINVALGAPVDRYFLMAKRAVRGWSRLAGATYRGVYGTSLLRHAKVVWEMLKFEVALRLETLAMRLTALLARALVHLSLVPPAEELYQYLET

[14] = target: AP-1 complex subunit sigma-1A (Homo sapiens) (UniProt P61966)
[15] = target: Dual specificity protein kinase CLK4 (Homo sapiens) (UniProt Q9HAZ1)
Chain of Dual specificity protein kinase CLK4 (Homo sapiens) (Q9HAZ1 whole entry, looked up): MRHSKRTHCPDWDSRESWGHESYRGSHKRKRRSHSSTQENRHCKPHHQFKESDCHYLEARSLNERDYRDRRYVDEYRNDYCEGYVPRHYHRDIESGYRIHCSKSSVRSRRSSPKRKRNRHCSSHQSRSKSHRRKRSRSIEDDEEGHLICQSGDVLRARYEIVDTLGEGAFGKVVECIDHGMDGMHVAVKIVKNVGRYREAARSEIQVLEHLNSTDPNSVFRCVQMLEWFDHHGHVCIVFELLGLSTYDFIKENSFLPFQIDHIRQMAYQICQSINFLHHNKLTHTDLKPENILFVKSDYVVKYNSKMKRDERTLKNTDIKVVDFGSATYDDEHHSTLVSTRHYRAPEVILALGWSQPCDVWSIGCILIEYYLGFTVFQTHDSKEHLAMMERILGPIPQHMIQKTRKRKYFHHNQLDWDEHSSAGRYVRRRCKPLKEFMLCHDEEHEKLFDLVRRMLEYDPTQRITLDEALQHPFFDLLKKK

[16] = target: Cleavage and polyadenylation specificity factor subunit 1 (Homo sapiens) (UniProt Q10570)
Homo sapiens [17] = organism: Homo sapiens
[18] = target: Translation initiation factor eIF2B subunit epsilon (Homo sapiens) (UniProt Q13144)
Chain of Translation initiation factor eIF2B subunit epsilon (Homo sapiens) (Q13144 whole entry): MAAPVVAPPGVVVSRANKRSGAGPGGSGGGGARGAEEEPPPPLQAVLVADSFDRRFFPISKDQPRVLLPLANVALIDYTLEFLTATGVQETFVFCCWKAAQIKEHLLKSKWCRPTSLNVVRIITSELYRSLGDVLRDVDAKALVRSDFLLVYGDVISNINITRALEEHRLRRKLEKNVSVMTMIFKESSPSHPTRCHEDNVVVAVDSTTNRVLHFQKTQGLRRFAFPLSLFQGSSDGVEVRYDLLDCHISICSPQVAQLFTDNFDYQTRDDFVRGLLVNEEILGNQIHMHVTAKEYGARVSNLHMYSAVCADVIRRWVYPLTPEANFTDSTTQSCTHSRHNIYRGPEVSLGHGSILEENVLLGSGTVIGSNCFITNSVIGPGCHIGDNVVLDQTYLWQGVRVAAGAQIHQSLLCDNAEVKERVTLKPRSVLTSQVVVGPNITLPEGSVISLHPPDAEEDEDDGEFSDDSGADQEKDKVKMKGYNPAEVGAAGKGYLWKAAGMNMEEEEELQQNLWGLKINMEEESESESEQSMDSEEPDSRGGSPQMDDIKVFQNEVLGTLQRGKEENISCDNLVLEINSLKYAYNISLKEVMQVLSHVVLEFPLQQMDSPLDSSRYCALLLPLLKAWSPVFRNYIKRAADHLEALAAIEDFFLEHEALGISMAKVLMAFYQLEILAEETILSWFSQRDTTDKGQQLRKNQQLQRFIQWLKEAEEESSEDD

[19] = target: Glutathione S-transferase kappa 1 (Homo sapiens) (UniProt Q9Y2Q3)
Chain of Glutathione S-transferase kappa 1 (Homo sapiens) (Q9Y2Q3 whole entry): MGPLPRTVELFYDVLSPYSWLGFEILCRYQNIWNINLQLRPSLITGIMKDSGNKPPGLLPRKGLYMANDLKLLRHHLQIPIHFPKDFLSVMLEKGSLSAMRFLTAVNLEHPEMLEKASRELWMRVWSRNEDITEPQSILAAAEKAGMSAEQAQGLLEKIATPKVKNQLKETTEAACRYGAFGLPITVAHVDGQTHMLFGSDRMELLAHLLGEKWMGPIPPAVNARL

[20] = target: Histone H1.3 (Homo sapiens) (UniProt P16402)
[21] = target: Lysine-specific histone demethylase 1A (Homo sapiens) (UniProt O60341)
[22] = target: La-related protein 7 (Homo sapiens) (UniProt Q4G0J3)
[23] = target: Large ribosomal subunit protein bL21m (Homo sapiens) (UniProt Q7Z2W9)
[24] = target: ATP synthase F(0) complex subunit 8 (Homo sapiens) (UniProt P03928)
[25] = target: NADH dehydrogenase [ubiquinone] flavoprotein 2, mitochondrial (Homo sapiens) (UniProt P19404)
[26] = target: Presenilin-associated rhomboid-like protein, mitochondrial (Homo sapiens) (UniProt Q9H300)
[27] = target: Peroxisomal biogenesis factor 3 (Homo sapiens) (UniProt P56589)
[28] = target: Phosphatidylinositol 4,5-bisphosphate 3-kinase catalytic subunit beta isoform (Homo sapiens) (UniProt P42338)
[29] = target: DNA polymerase delta subunit 3 (Homo sapiens) (UniProt Q15054)
[30] = target: Syndecan-2 (Homo sapiens) (UniProt P34741)
[31] = target: SPATS2-like protein (Homo sapiens) (UniProt Q9NUQ6)
Chain of SPATS2-like protein (Homo sapiens) (Q9NUQ6 whole entry): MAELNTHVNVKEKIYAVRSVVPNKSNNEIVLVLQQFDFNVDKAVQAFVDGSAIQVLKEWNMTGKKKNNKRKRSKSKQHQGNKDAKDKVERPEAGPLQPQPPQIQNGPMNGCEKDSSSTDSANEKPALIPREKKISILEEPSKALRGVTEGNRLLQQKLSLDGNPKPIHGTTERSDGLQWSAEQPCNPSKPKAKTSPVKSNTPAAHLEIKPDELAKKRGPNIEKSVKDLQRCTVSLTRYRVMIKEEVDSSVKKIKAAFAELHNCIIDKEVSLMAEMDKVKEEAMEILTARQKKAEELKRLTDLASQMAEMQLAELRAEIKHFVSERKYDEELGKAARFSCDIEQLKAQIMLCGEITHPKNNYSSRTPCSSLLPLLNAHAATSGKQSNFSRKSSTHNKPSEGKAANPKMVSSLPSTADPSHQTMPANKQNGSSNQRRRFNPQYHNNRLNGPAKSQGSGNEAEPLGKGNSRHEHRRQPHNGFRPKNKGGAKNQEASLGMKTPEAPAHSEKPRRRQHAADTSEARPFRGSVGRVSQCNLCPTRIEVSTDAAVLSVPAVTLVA

Tektin-1 (Homo sapiens) = Tektin-1 (Homo sapiens) (UniProt Q969V4)
[32] = target: Dual specificity testis-specific protein kinase 1 (Homo sapiens) (UniProt Q15569)
[33] = target: Testis-expressed protein 10 (Homo sapiens) (UniProt Q9NXF1)
[34] = target: Brefeldin A-inhibited guanine nucleotide-exchange protein 1 (Homo sapiens) (UniProt Q9Y6D6)
[35] = target: F-actin-capping protein subunit alpha-1 (Homo sapiens) (UniProt P52907)
[36] = target: Trifunctional purine biosynthetic protein adenosine-3 (Homo sapiens) (UniProt P22102)
[37] = target: GDP-mannose 4,6 dehydratase (Homo sapiens) (UniProt O60547)
[38] = target: Histone H1.2 (Homo sapiens) (UniProt P16403)
[39] = target: La-related protein 1 (Homo sapiens) (UniProt Q6PKG0)
Matrin-3 (Homo sapiens) = Matrin-3 (Homo sapiens) (UniProt P43243)
[40] = target: C-1-tetrahydrofolate synthase, cytoplasmic (Homo sapiens) (UniProt P11586)
[41] = target: Proteasome subunit alpha type-3 (Homo sapiens) (UniProt P25788)
Homo sapiens [42] = organism: Homo sapiens; remark: listed apart in the source
[43] = target: Serine/arginine-rich splicing factor 2 (Homo sapiens) (UniProt Q01130)
[44] = target: EKC/KEOPS complex subunit TPRKB (Homo sapiens) (UniProt Q9Y3C4)
Also: assay method not described here.

Chain of Transmembrane protein 94 (Homo sapiens) (Q12767 whole entry): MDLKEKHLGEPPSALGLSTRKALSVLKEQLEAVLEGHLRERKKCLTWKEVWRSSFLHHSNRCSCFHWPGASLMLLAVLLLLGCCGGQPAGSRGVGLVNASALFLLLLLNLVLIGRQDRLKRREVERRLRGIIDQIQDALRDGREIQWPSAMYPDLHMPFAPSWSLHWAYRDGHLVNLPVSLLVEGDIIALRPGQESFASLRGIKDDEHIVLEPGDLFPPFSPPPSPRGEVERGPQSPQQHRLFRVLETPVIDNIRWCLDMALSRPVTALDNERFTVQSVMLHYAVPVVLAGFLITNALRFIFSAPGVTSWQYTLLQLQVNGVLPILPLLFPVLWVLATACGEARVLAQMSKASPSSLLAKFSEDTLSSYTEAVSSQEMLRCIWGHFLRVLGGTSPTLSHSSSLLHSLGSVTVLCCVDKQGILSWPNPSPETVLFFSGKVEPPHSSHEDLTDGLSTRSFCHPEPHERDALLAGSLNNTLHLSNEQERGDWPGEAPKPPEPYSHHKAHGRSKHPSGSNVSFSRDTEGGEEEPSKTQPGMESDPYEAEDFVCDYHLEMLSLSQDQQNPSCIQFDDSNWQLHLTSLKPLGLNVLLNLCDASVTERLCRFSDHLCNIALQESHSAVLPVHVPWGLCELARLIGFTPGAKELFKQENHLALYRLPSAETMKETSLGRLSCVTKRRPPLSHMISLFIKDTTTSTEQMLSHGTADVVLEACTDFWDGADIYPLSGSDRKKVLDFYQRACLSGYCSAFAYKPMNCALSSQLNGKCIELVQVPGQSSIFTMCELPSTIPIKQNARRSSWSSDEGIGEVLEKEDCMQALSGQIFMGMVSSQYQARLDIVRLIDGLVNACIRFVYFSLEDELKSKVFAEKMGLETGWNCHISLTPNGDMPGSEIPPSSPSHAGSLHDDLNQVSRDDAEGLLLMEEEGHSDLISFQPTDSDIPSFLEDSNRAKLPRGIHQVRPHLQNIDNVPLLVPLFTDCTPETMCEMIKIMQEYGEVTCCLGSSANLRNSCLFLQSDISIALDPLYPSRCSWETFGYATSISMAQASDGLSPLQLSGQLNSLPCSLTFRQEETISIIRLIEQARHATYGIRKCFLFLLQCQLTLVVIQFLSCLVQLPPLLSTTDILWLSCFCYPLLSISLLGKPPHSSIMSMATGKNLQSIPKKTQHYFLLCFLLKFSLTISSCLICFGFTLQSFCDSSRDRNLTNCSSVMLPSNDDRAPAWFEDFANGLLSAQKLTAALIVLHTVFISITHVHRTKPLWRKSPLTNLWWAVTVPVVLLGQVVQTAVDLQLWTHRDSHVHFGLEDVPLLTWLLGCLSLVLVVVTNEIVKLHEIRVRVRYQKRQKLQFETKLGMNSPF
Chain of Eukaryotic translation initiation factor 2-alpha kinase 1 (Homo sapiens) (Q9BQI3 whole entry): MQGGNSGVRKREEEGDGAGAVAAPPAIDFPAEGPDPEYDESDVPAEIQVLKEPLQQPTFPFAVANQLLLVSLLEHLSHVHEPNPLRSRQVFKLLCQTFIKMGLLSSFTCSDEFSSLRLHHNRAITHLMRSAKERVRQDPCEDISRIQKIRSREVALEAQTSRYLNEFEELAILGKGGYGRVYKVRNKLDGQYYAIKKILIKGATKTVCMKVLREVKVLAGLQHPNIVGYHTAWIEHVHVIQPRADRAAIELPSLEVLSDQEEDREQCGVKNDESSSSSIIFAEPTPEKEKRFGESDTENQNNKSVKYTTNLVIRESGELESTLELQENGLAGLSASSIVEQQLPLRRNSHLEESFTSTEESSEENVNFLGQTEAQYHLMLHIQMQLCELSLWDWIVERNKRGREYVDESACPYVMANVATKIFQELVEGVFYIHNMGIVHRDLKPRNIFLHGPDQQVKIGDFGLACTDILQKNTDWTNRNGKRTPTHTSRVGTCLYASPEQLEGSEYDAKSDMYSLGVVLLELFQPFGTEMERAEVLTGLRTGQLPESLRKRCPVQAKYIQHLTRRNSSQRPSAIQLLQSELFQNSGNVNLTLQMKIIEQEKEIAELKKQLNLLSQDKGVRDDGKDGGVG

## Cc1ccc(C(=O)Nc2cccc(C(F)(F)F)c2)cc1Nc1nc(-c2cccnc2)nc2c1cnn2C
[1]
  ED50: 4.33 µM
[2]
  ED50: 25.6 µM
[3]
  ED50: 0.181 µM
[4]
  ED50: 0.0776 µM
[5]
  ED50: 1.31 µM
Radixin (Homo sapiens)
  ED50: 0.002 µM
[6]
  ED50: 2.93 µM
[7]
  ED50: 2.45 µM
[8]
  ED50: 6.77 µM
[9]
  ED50: 1.85 µM
[10]
  ED50: 1090 µM
[11]
  ED50: 3.15 µM
[12]
  ED50: 0.00453 µM
[13]
  ED50: 1150 µM
[14]
  ED50: 0.163 µM
[15]
  ED50: 676 µM
[16]
  ED50: 0.0118 µM
Homo sapiens [17]
  ED50: 0.059 µM
[18]
  ED50: 5.15 µM
[19]
  ED50: 6.96 µM
[20]
  ED50: 10.4 µM
[21]
  ED50: 0.000417 µM
[22]
  ED50: 13.7 µM
[23]
  ED50: 5.95 µM
[24]
  ED50: 45.6 µM
[25]
  ED50: 0.571 µM
[26]
  ED50: 0.00451 µM
[27]
  ED50: 0.0115 µM
[28]
  ED50: 0.00163 µM
[29]
  ED50: 0.00157 µM
[30]
  ED50: 13.6 µM
[31]
  ED50: 0.0415 µM
Tektin-1 (Homo sapiens)
  ED50: 44 µM
[32]
  ED50: 0.000117 µM
[33]
  ED50: 18 µM

## Cc1ccc(C(=O)Nc2cccc(C(F)(F)F)c2)cc1Nc1nc(-c2cccnc2)nc2nn(C)cc12
[34]
  ED50: 0.516 µM
[35]
  ED50: 1.49 µM
[36]
  ED50: 0.136 µM
[37]
  ED50: 6770 µM
[38]
  ED50: 0.00894 µM
[39]
  ED50: 1.69 µM
Matrin-3 (Homo sapiens)
  ED50: 0.0227 µM
[40]
  ED50: 0.0871 µM
[41]
  ED50: 0.0084 µM
Homo sapiens [42]
  ED50: 0.00599 µM
[43]
  ED50: 0.00931 µM
[44]
  ED50: 0.55 µM
